Among the test systems are A498 renal; CCRF-CEM leukemia; HCT-116 colon; HCT-15 colon; HOP-62 NSCLC; NCI-H522 lung; RXF 393 renal; SF-268 CNS; SK-MEL-5 melanoma; UACC-257 melanoma.
Experiment in all cases: inhibition of tumour cell growth, NCI panel, 48 h

Each structure is given as a SMILES string.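 Assay format: 96-well plates, 48-hour exposure. GI50 is the concentration that inhibits growth by half. The concentration for full growth arrest is given as TGI.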

For the molecule `COc1cc2c(OC)c(c1)CCCC1=CC(=O)C=C(CCC2)C1=O`, the TGI with A498 renal was greater than 100 µM; in the assay on CCRF-CEM leukemia, 20.1 µM; in the assay on HCT-116 colon, 38.1 µM; in the assay with HCT-15 colon, 98.4 µM; with HOP-62 NSCLC it was greater than 100 µM; with NCI-H522 lung it was 46.2 µM. Also, the TGI was 76.7 µM with RXF 393 renal, greater than 100 µM with SF-268 CNS, greater than 100 µM in the assay with SK-MEL-5 melanoma and greater than 100 µM in the assay with UACC-257 melanoma.
Take `COc1cc(-c2cc(-c3nc4ccccc4[nH]3)[nH]n2)cc(OC)c1OC`: the GI50 with A498 renal is 1.51 µM; in the assay on CCRF-CEM leukemia it was 2.12 µM; in the assay with HCT-116 colon, 3.16 µM; with HCT-15 colon, 3.43 µM; in the assay on HOP-62 NSCLC, 3.54 µM; in the assay with NCI-H522 lung, 1.87 µM. Moreover, the GI50 with RXF 393 renal is 1.77 µM; in the assay with SF-268 CNS, 6.43 µM; in the assay on SK-MEL-5 melanoma it was 1.34 µM; in the assay on UACC-257 melanoma it was 2.1 µM. Moreover, the TGI was 27.1 µM with A498 renal; 9.96 µM with CCRF-CEM leukemia; 16.8 µM in the assay on HCT-116 colon; 24.4 µM in the assay on HCT-15 colon; 16.7 µM in the assay on HOP-62 NSCLC; 8.81 µM in the assay with NCI-H522 lung. For the same molecule, the TGI worked out at 11.4 µM in the assay with RXF 393 renal, 21.9 µM in the assay on SF-268 CNS, 3.94 µM in the assay on SK-MEL-5 melanoma and 6.12 µM in the assay with UACC-257 melanoma.
Regarding `CN1CCN(Cc2ccc(NC(=O)c3[nH]ncc3Nc3ncnc4c3CCC4)cc2)CC1`, the GI50 in the assay with A498 renal is 1.6 µM; in the assay on CCRF-CEM leukemia it was 0.611 µM; with HCT-116 colon, 0.454 µM; in the assay with HCT-15 colon it was 1.67 µM; in the assay with HOP-62 NSCLC, 2.69 µM; in the assay on NCI-H522 lung, 1.54 µM. The GI50 in the assay on RXF 393 renal is 1.4 µM; in the assay with SF-268 CNS, 2.14 µM; with SK-MEL-5 melanoma, 0.874 µM; in the assay with UACC-257 melanoma, 3.49 µM. Besides, the TGI in the assay with A498 renal was 4.45 µM; in the assay with CCRF-CEM leukemia it was 11 µM; in the assay with HCT-116 colon it was 11.4 µM; in the assay with HCT-15 colon, 12.6 µM; with HOP-62 NSCLC it was 11.5 µM; in the assay on NCI-H522 lung, 8.79 µM. Also, the TGI in the assay with RXF 393 renal is 3.23 µM; in the assay on SF-268 CNS it was 7.78 µM; in the assay with SK-MEL-5 melanoma it was 13.3 µM; in the assay on UACC-257 melanoma, 15.4 µM.
As for `CC(=O)OC[C@@H]1[C@H]2CC(=O)O[C@H]2C[C@H]1OC(C)=O`, the TGI with A498 renal, with CCRF-CEM leukemia, in the assay with HCT-116 colon, in the assay with HCT-15 colon, in the assay with HOP-62 NSCLC and with NCI-H522 lung was greater than 100 µM in each case. Moreover, the TGI in the assay with RXF 393 renal, with SF-268 CNS, with SK-MEL-5 melanoma and with UACC-257 melanoma was greater than 100 µM each time.
Regarding `CC(C)(C)C(=O)C(c1ccc(-c2cscn2)cc1)c1ccc(-c2cscn2)cc1`, the TGI in the assay with A498 renal was 65.8 µM; with CCRF-CEM leukemia it was greater than 100 µM; in the assay with HCT-116 colon it was greater than 100 µM; with HCT-15 colon, greater than 100 µM; in the assay on HOP-62 NSCLC, 40.6 µM; in the assay with NCI-H522 lung it was greater than 100 µM. In addition, the TGI in the assay with RXF 393 renal is 54.7 µM; in the assay on SF-268 CNS, 97.5 µM; in the assay on SK-MEL-5 melanoma, greater than 100 µM; in the assay with UACC-257 melanoma, greater than 100 µM.
For the molecule `C#CC[C@H](c1nc2cc(Cl)ccc2c(=O)n1Nc1ccccc1)N(CCCN)C(=O)c1cccc(Cl)c1F`, the GI50 in the assay with A498 renal is 0.626 µM; with CCRF-CEM leukemia it was 0.134 µM; with HCT-116 colon, 0.0403 µM; in the assay with HCT-15 colon, 2.15 µM; with HOP-62 NSCLC, 0.842 µM; with NCI-H522 lung it was 0.0898 µM. Also, the GI50 is 0.284 µM with RXF 393 renal, 0.214 µM with SF-268 CNS, 0.727 µM with SK-MEL-5 melanoma and 1.02 µM in the assay with UACC-257 melanoma. Further, the TGI stood at 3.43 µM in the assay on A498 renal; 1.91 µM with CCRF-CEM leukemia; 1.3 µM with HCT-116 colon; 5.68 µM in the assay on HCT-15 colon; 2.23 µM in the assay with HOP-62 NSCLC; 0.935 µM in the assay on NCI-H522 lung. Also, the TGI with RXF 393 renal is 1.37 µM; in the assay on SF-268 CNS, 2.61 µM; in the assay on SK-MEL-5 melanoma, 2.14 µM; in the assay on UACC-257 melanoma it was 2.37 µM.
With `CCc1ccc(CCC(=O)Nc2ncc(Cc3ccccc3)s2)o1`, the GI50 in the assay on A498 renal was 1.29 µM; with CCRF-CEM leukemia, 2.02 µM; in the assay with HCT-116 colon, 1.05 µM; with HCT-15 colon, 0.544 µM; in the assay on HOP-62 NSCLC it was 2.91 µM; in the assay on NCI-H522 lung it was 1.99 µM. Moreover, the GI50 was 2.45 µM in the assay with RXF 393 renal, 8.64 µM in the assay on SF-268 CNS, 1.16 µM in the assay on SK-MEL-5 melanoma and greater than 100 µM in the assay on UACC-257 melanoma. Besides, the TGI is 8.87 µM in the assay on A498 renal; greater than 100 µM with CCRF-CEM leukemia; greater than 100 µM in the assay with HCT-116 colon; greater than 100 µM in the assay with HCT-15 colon; greater than 100 µM with HOP-62 NSCLC; greater than 100 µM with NCI-H522 lung. The TGI is 9.13 µM in the assay with RXF 393 renal, greater than 100 µM in the assay on SF-268 CNS, greater than 100 µM with SK-MEL-5 melanoma and greater than 100 µM in the assay on UACC-257 melanoma.
On to `NC(=O)C1=C(c2ccccc2)c2ccccc2C1=O`, for which the TGI in the assay with A498 renal amounted to 60.8 µM; with CCRF-CEM leukemia it was 7.71 µM; in the assay on HCT-116 colon it was 34.9 µM; with HCT-15 colon, 26.8 µM; in the assay with HOP-62 NSCLC, 28.3 µM; in the assay on NCI-H522 lung, 45.1 µM. For the same molecule, the TGI with RXF 393 renal worked out at 35.9 µM; in the assay on SF-268 CNS it was 44.3 µM; in the assay with SK-MEL-5 melanoma, 33.6 µM; in the assay with UACC-257 melanoma it was 27.1 µM.
Regarding `O=C1C(Cl)=C(N2CCOCC2)C(=O)c2ccccc21`, the GI50 was 11.2 µM in the assay with A498 renal; 2.53 µM in the assay on CCRF-CEM leukemia; 1.86 µM in the assay on HCT-116 colon; 2.11 µM with HCT-15 colon; 17.4 µM with HOP-62 NSCLC; 1.67 µM with NCI-H522 lung. The GI50 in the assay with RXF 393 renal was 1.85 µM; in the assay with SF-268 CNS it was 4.88 µM; with SK-MEL-5 melanoma, 6.82 µM; in the assay with UACC-257 melanoma, 1.62 µM. Moreover, the TGI with A498 renal was determined as 24.3 µM; in the assay with CCRF-CEM leukemia, 6.77 µM; with HCT-116 colon, 3.37 µM; in the assay on HCT-15 colon it was 4.33 µM; with HOP-62 NSCLC it was 31.3 µM; in the assay with NCI-H522 lung, 3.23 µM. Moreover, the TGI in the assay on RXF 393 renal was 3.26 µM; in the assay on SF-268 CNS, 16.8 µM; with SK-MEL-5 melanoma, 19.4 µM; in the assay with UACC-257 melanoma, 3.03 µM.

The values are drawn from PubChem BioAssay (NCI).
